Experimental findings from US11028361B2, “Compositions and methods for stabilizing susceptible compounds” (LIFE TECHNOLOGIES CORPORATION, priority 2011, dated 2021) are described below.

For one series, the system named is HeLa cells. The experiment in a line: HeLa cell growth with insulin-dendrimer-RGD conjugate, microencapsulated or not (FIG. 7B). The series is classed as cell-based. To be noted: for Potency and growth characteristics of HeLa cells: FIG. 7B. The source says: FIG. 7B: Impact of microencapsulation of the insulin-dendrimer-RGD covalent conjugate on the growth of HeLa cell Growth.

Series [1] can be described thus: Microbeads protection studies during real-time ambient storage in AGT media (FIG. 8). It counts as physicochemical. To be noted: FIG. 8, AGT media, ambient conditions. The source says: FIG. 8: Microbeads protection studies during real-time ambient storage.
In series [2] the test system is DG44-EPO, a CHO cell line expressing recombinant erythropoietin. The series is described as follows: Cell culture potency of ethanolamine derivatives (viable cell density). It counts as cell-based, Chinese hamster. Conditions: for Multiple of the ethanolamine molar equivalent yielding similar growth potential to ethanolamine: FIGS. 1A and 1B, titered up to 64× of a molar equivalent, viable cell density followed for 8 days. The source says: We tested a range of ethanolamine derivatives for cell culture potency, including phosphorylethanolamine (PE), triethanolamine (TE), diethanolamine (DE), monomethylethanolamine (MME), dimethylethanolamine (DME), and N-acetylethanolaine (NAE). […] The cell line used was DG44-EPO, a CHO cell line expressing recombinant erythropoietin, that requires ethanolamine for good growth. Cells were inoculated at 3×10^5/ml and cultured bi-weekly for 3 subpassages in each condition prior to starting the assay. The assay was also inoculated at 3×10^5/ml but followed for 8 days for viable cell density from a ViCell cell counter.
Next we titered the compounds up to 64× of a molar equivalent. Both phoshorylethanolamine and NAE at about 16× the molar equivalent yielded similar growth potential to ethanolamine. In another set of experiments, NAE at about 16× the ethanolamine molar equivalent was again shown to be able to supplement an ethanolamine-sensitive line as well as ethanolamine. These latter experiments were performed in 24 well culture trays. Cells were inoculated at 1×10^5/ml and samples harvested at day 12. Because the nitrogen atom in NAE is contained within an amide structure, it is expected that NAE should be stable and can be used in place of ethanolamine in cell culture media.
The negative control is without ethanolamine. The line way above the rest should be disregarded—it is a CD CHO catalogue control, not relevant to this assay.

Series [3] in a line: Stability of insulin / insulin-dendrimer with and without alginate microencapsulation (FIG. 7A, FIG. 10). The series is classed as physicochemical. How it is done:
Further examples for microencapsulating labile compounds other than ethanolamine are shown below. A sequestering agent like alginate was used to encapsulate or embed a dendrimer-insulin complex. The labile compound insulin was polymerized with PAMAM dendrimer, and further microencapsulated in alginate microbeads with or without PLL. Briefly, for dendrimer generation, PAMAM 2.5 (carboxylate surface groups) was used. Insulin was conjugated onto the dendrimer to which RGD sequences were also added to target the cell surface. The ratios of components in this complex was dendrimer:RGD:insulin=1:7:12.
Concentration of conjugate and alginate was adjusted as on attachment. Next conjugate was added to the alginate and mixed several minutes to distribute evenly. It was dripped through a 26 gauge needle using a 1 ml syringe into a calcium chloride bath (13.32 g/L). It was left to incubate for 30 minutes to solidify microcapsules. Then rinsed 1× in a solution also containing the dendrimer conjugate to prevent loss of component from the microcapsules. Then dried overnight in a vacuum over dessicant. The loaded microbeads were then added to AGT dry-format medium or used by adding directly into a liquid medium.
The insulin concentration of the dendrimer-insulin-RGD conjugate was estimated to be ˜2 mg/ml (pg 165/168). It needed to be diluted in half to get to ˜1 mg/ml (1000 μg/ml). […]

For insulin [insulin alone], the “Potency and growth characteristics of HeLa cells” value in the series with HeLa cells is “equivalent potency and growth characteristics of HeLa cells”. On to `NCCO` [Unencapsulated ethanolamine, ethanolamine], for which the entries for the “Ethanolamine potency (activity) during ambient storage” value in series [1] and in series [1] (listed as unprotected ethanolamine) were “drops quickly” and “dropped quickly”, respectively. Consider `CC(=O)NCCO` [NAE, N-acetylethanolamine], for which, in series [2] (FIG. 2A (Example 2)), the “Higher concentration needed to perform in a cell growth assay comparable to ethanolamine” value is reported as 8-12 fold. Besides, the “Multiple of the ethanolamine molar equivalent able to supplement an ethanolamine-sensitive line comparable to ethanolamine” value in series [2] (FIG. 2A cell growth titration assay (figure legend)) was 16-20 ×. Further, the “Multiple of the ethanolamine molar equivalent yielding similar growth potential to ethanolamine” value in series [2] was “about 16 ×”. Also, the “Multiple of the ethanolamine molar equivalent able to supplement an ethanolamine-sensitive line as well as ethanolamine” value in series [2] (another set of experiments, 24 well culture trays, harvested at day 12) was “about 16 ×”. As for `NCCOP(=O)(O)O` [phoshorylethanolamine, phosphorylethanolamine], the “Multiple of the ethanolamine molar equivalent yielding similar growth potential to ethanolamine” value in series [2] was “about 16 ×”. Turning to alginate, the “Inhibition of / interference with viability or growth of HeLa cells” value in the series on HeLa cells is “did not interfere with viability or growth of Hela cells”. With “unencapsulated dendrimer (with insulin): insulin conjugated onto PAMAM 2.5 dendrimer with RGD sequences, dendrimer:RGD:insulin=1:7:12, not encapsulated”, the “Potency and growth characteristics of HeLa cells” value with HeLa cells was “equivalent potency and growth characteristics of HeLa cells”. The “Potency of insulin at 4° C.” value in series [3] is “comparable to that of insulin alone”.
